Results: US20060142379A1, “Use of AP-1 activators to treat glaucoma and ocular hypertension” (priority 1999, published 2006)

Columns and labels:
[1] = system: perfused human ocular anterior segment; experiment: human ocular perfusion organ culture model, aqueous outflow rate; conditions: for Flow Rate (% of Time 0) (Mean ± SEM, n = 6): t-BHQ 10 μM
Method: The study was performed as follows: Human donor eyes less than 24 hours post mortem were used. The globe was sectioned equatorially followed by the removal of vitreous, lens, zonules, iris, and most of the ciliary body. The anterior segment was then mounted on a perfusion dish, perfused with cell culture medium at a constant hydrostatic pressure of 10 mm Hg (Johnson et al., Human trabecular meshwork organ culture: A new method, Invest Ophthalmol Vis Sci., volume 28, pages 945-953 (1987); Erickson-Lamy et al., Outflow facility studies in the perfused human ocular anterior segment, Exp. Eye Res., volume 52, pages 723-731 (1991); and Clark et al., Dexamethasone-induced ocular hypertension in perfusion cultured human eyes, Invest. Ophthalmol. Vis. Sci., volume 36, pages 478-489 (1995)). The flow rate of the perfusate was measured by weighing the reservoir at predetermined periods. After 2 to 4 days of equilibrium period, one eye of each of the donor pair was perfused with the test compound, t-BHQ (10 μM), while the other was perfused with vehicle (control).

AP-1 = conditions: nuclear extracts, 32P-labelled AP-1 oligonucleotide probe; cited from earlier work

SMILES: CC(C)(C)c1cc(O)ccc1O [t-BHQ, tert-butylhydroquinone]
- basal flow rate at time 0 ([1]; drug-treated eyes, time 0 (basal)): (1) The basal flow rate at time 0 for vehicle-treated eyes was 3.55 ± 1.00 μL/min, and that for drug-treated eyes was 4.09 ± 0.63 μL/min.
- Flow Rate (% of Time 0) (Mean ± SEM, n = 6) ([1]; 0 hours (baseline)): 100.0 % of Time 0
- Flow Rate (% of Time 0) (Mean ± SEM, n = 6) ([1]; 4 hours after treatment): 105.8 ± 5.4 % of Time 0
- Flow Rate (% of Time 0) (Mean ± SEM, n = 6) ([1]; 24 hours after treatment): 102.9 ± 3.9 % of Time 0
- Flow Rate (% of Time 0) (Mean ± SEM, n = 6) ([1]; 48 hours after treatment): 105.2 ± 10.1 % of Time 0
- Flow Rate (% of Time 0) (Mean ± SEM, n = 6) ([1]; 72 hours after treatment): 111.8 ± 11.8 % of Time 0
- Flow Rate (% of Time 0) (Mean ± SEM, n = 6) ([1]; 96 hours after treatment): 120.9 ± 16.4 % of Time 0
- Flow Rate (% of Time 0) (Mean ± SEM, n = 6) ([1]; −4 hours (before treatment)): 97.0 ± 4.0 % of Time 0
- AP-1 DNA binding activity (AP-1 Activator) (AP-1): demonstrated to be AP-1 Activators
